# From publication PMC1568117 (Environmental Health Perspectives, 1989)
# Experiments:
# B6C3F1 mice = details: week 91
# F344/N rats = details: week 92
smiles,measurement,setting,value
c1ccccc1 [benzene],Survival in all groups,B6C3F1 mice,greater than 60%
same,Survival in all groups,F344/N rats,greater than 60%
